Data taken from ChEMBL document CHEMBL2074557 (Drug Metab Dispos, 1999).

Biological target: ATP-dependent translocase ABCB1 (Mus musculus, UniProt P21447)
Assay: TP_TRANSPORTER: increase in plasma concentration in PGP(-/-) mouse
Type: functional, organism-based
Details: in vivo

Chain of ATP-dependent translocase ABCB1 (P21447 whole entry): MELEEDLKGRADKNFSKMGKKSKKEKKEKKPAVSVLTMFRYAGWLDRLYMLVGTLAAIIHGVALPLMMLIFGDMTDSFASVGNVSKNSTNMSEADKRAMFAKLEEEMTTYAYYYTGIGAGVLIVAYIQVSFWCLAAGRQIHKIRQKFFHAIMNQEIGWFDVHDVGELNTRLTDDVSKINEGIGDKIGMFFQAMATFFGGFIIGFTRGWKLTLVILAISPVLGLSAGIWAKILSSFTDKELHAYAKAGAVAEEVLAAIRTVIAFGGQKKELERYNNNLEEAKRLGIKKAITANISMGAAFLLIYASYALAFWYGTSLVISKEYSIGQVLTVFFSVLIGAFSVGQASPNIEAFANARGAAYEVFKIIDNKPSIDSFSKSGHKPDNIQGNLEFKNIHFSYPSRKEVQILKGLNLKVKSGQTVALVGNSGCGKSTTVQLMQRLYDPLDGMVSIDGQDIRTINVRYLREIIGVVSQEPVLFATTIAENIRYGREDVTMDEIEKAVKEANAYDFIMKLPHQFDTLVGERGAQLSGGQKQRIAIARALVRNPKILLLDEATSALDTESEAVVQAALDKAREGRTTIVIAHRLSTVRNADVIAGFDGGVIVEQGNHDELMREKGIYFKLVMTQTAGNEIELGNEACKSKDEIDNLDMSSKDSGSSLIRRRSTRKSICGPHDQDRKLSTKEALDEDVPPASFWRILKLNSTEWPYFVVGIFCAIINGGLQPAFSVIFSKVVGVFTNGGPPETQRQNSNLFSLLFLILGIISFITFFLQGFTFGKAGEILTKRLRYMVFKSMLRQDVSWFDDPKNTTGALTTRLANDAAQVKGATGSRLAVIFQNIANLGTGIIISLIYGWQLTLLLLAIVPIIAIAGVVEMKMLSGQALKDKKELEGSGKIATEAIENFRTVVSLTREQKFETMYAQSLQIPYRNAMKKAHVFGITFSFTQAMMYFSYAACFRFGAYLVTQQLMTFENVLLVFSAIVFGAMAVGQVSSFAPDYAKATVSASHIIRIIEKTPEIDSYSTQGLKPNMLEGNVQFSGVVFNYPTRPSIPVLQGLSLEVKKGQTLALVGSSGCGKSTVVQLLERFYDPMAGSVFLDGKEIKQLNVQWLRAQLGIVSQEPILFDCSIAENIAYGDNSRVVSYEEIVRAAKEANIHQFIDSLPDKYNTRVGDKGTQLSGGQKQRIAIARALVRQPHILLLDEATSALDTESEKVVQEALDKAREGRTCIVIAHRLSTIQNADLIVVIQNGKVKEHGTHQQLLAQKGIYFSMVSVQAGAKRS

IVERMECTIN
Activity: substrate [+]
